Test results taken from ChEMBL document CHEMBL3046327, “Nicotinic acid hydrazones: a novel anticonvulsant pharmacophore” (Med Chem Res, 2011).
The source made the active and inactive calls. The calls are words filed in the database; no cut-off is given here.

What was measured:
Mus musculus [1] = experiment: Neurotoxicity in Mus musculus C57B/6 (mouse) assessed motor impairment at 300 mg/kg, ip after 4 hr by rotarod test; format: toxicity, organism-based; design: dose 300 mg/kg, route intraperitoneal; details: in vivo
Mus musculus [2] = experiment: Neurotoxicity in Mus musculus C57B/6 (mouse) assessed motor impairment at 300 mg/kg, ip after 0.5 hr by rotarod test; format: toxicity, organism-based; design: dose 300 mg/kg, route intraperitoneal; details: in vivo
Mus musculus [3] = experiment: Anticonvulsant activity in Mus musculus C57B/6 (mouse) assessed protection against subcutaneous pentylenetetrazole-induced seizures at 300 mg/kg, ip after 4 hr; format: functional, organism-based; design: dose 300 mg/kg
Mus musculus [4] = experiment: Anticonvulsant activity in Mus musculus C57B/6 (mouse) assessed protection against subcutaneous pentylenetetrazole-induced seizures at 300 mg/kg, ip after 0.5 hr; format: functional, organism-based; design: dose 300 mg/kg
Mus musculus [5] = experiment: Anticonvulsant activity in Mus musculus C57B/6 (mouse) assessed protection against maximal electroshock-induced seizures at 300 mg/kg, ip after 4 hr; format: functional, organism-based; design: dose 300 mg/kg
Mus musculus [6] = experiment: Anticonvulsant activity in Mus musculus C57B/6 (mouse) assessed protection against maximal electroshock-induced seizures at 300 mg/kg, ip after 0.5 hr; format: functional, organism-based; design: dose 300 mg/kg
Mus musculus [7] = experiment: Neurotoxicity in ip dosed Mus musculus C57B/6 (mouse) assessed motor impairment after 4 hr by rotarod test; format: toxicity, organism-based; details: in vivo
Mus musculus [8] = experiment: Neurotoxicity in ip dosed Mus musculus C57B/6 (mouse) assessed motor impairment after 0.5 hr by rotarod test; format: toxicity, organism-based; details: in vivo
Mus musculus [9] = experiment: Anticonvulsant activity in ip dosed Mus musculus C57B/6 (mouse) assessed protection against maximal electroshock-induced seizures after 4 hr; format: functional; details: C57B/6, ip, read-out: MED
Mus musculus [10] = experiment: Anticonvulsant activity in ip dosed Mus musculus C57B/6 (mouse) assessed protection against maximal electroshock-induced seizures after 0.5 hr; format: functional; details: C57B/6, ip, read-out: MED
Mus musculus [11] = experiment: Anticonvulsant activity in ip dosed Mus musculus C57B/6 (mouse) assessed protection against 6 Hz psychomotor seizure after 0.25 hr by minimal clonic seizure test; format: functional; details: C57B/6, ip, read-out: MED
Mus musculus [12] = organism: Mus musculus; experiment: Protective index, ratio of TD50 for Mus musculus C57B/6 (mouse) to ED50 for Mus musculus C57B/6 (mouse) assessed protection against 6 Hz psychomotor seizure by minimal clonic seizure test; format: functional
[13] = Neurotoxicity in ip dosed Mus musculus C57B/6 (mouse) assessed motor impairment by rotarod test; format: toxicity, organism-based; details: in vivo
Mus musculus [14] = experiment: Anticonvulsant activity in ip dosed Mus musculus C57B/6 (mouse) assessed protection against 6 Hz psychomotor seizure by minimal clonic seizure test; format: functional; details: C57B/6, ip
Mus musculus [15] = experiment: Anticonvulsant activity in ip dosed Mus musculus C57B/6 (mouse) assessed protection against 6 Hz psychomotor seizure after 0.5 hr by minimal clonic seizure test; format: functional; details: C57B/6, ip, read-out: MED
Rattus norvegicus [16] = organism: Rattus norvegicus; experiment: Protective index, ratio of TD50 for Rattus norvegicus Sprague-Dawley (rat) to ED50 for Rattus norvegicus Sprague-Dawley (rat) assessed protection against 6 Hz psychomotor seizure by minimal clonic seizure test; format: functional
[17] = Neurotoxicity in po dosed Rattus norvegicus Sprague-Dawley (rat) assessed motor impairment by rotarod test; format: toxicity, organism-based; details: in vivo
Rattus norvegicus [18] = experiment: Anticonvulsant activity in po dosed Rattus norvegicus Sprague-Dawley (rat) assessed protection against 6 Hz psychomotor seizure by minimal clonic seizure test; format: functional

In the case of O=C(N/N=C/c1ccccc1F)c1ccccc1, the Activity (Mus musculus [1]) is reported as “Non-toxic”, the Activity (Mus musculus [2]) is reported as “Non-toxic” and the Activity (Mus musculus [3]) is reported as “inactive”. For the same compound, the Activity (Mus musculus [4]) was “inactive”, the Activity (Mus musculus [5]) was “inactive” and the Activity (Mus musculus [6]) was “inactive”.
In the case of O=C(N/N=C/c1ccc(Cl)cc1)c1ccncc1, the Activity (Mus musculus [7]) is reported as 100 mg/kg, the Activity (Mus musculus [8]) is reported as 100 mg/kg and the Activity (Mus musculus [3]) is reported as “inactive”. The Activity (Mus musculus [4]) was “inactive”, the minimal effective dose (Mus musculus [9]) was 100 mg/kg and the minimal effective dose (Mus musculus [10]) was 100 mg/kg.
In the case of O=C(N/N=C/c1cccc(Cl)c1)c1ccccc1, the Activity (Mus musculus [1]) is reported as “Non-toxic”, the Activity (Mus musculus [2]) is reported as “Non-toxic” and the Activity (Mus musculus [3]) is reported as “inactive”. For the same compound, the Activity (Mus musculus [4]) was “inactive”, the Activity (Mus musculus [5]) was “inactive” and the Activity (Mus musculus [6]) was “inactive”.
In the case of O=C1NC(=O)C(c2ccccc2)(c2ccccc2)N1 [PHENYTOIN], the Activity (Mus musculus [7]) is reported as 100 mg/kg, the Activity (Mus musculus [8]) is reported as 100 mg/kg and the Activity (Mus musculus [3]) is reported as “inactive”. The Activity (Mus musculus [4]) was “inactive”, the minimal effective dose (Mus musculus [9]) was 30 mg/kg and the minimal effective dose (Mus musculus [10]) was 30 mg/kg.
With Cc1ccc(C(=O)N/N=C/c2ccc([N+](=O)[O-])cc2)cc1 the Activity (Mus musculus [1]) was “Non-toxic”, the Activity (Mus musculus [2]) was “Non-toxic” and the Activity (Mus musculus [3]) was “inactive”. The Activity (Mus musculus [4]) was “inactive”, the Activity (Mus musculus [5]) was “inactive” and the Activity (Mus musculus [6]) was “inactive”.
In the case of O=C(N/N=C/c1cccc(Br)c1)c1cccnc1, the minimal effective dose (Mus musculus [11]) is reported as 35 mg/kg, the Activity (Mus musculus [1]) is reported as “Non-toxic” and the Activity (Mus musculus [2]) is reported as “Non-toxic”. For the same compound, the Activity (Mus musculus [3]) was “inactive”, the Activity (Mus musculus [4]) was “inactive” and the Activity (Mus musculus [5]) was “inactive”. For the same compound, the minimal effective dose (Mus musculus [10]) was 100 mg/kg, the “Ratio TD50/ED50” value (Mus musculus [12]) was greater than 11 and the TD50 [13] was greater than 520 mg/kg. It also gave an ED50 (Mus musculus [14]) of 47.2 mg/kg and a minimal effective dose (Mus musculus [15]) of 35 mg/kg.
For O=C(N/N=C/c1ccc([N+](=O)[O-])cc1)c1ccncc1 [N'-(4-NITROBENZYLIDENE)ISONICOTINOHYDRAZIDE], the Activity (Mus musculus [1]) was “Non-toxic”, the Activity (Mus musculus [2]) was “Non-toxic” and the Activity (Mus musculus [3]) was “inactive”. For the same compound, the Activity (Mus musculus [4]) was “inactive”, the Activity (Mus musculus [5]) was “inactive” and the Activity (Mus musculus [6]) was “inactive”.
For O=C(N/N=C/c1ccc(O)cc1)c1ccccc1, the Activity (Mus musculus [1]) was “Non-toxic”, the Activity (Mus musculus [2]) was “Non-toxic” and the Activity (Mus musculus [3]) was “inactive”. For the same compound, the Activity (Mus musculus [4]) was “inactive”, the Activity (Mus musculus [5]) was “inactive” and the Activity (Mus musculus [6]) was “inactive”.
With O=C(N/N=C/c1ccccc1Br)c1ccncc1 the Activity (Mus musculus [1]) was “Non-toxic”, the Activity (Mus musculus [2]) was “Non-toxic” and the Activity (Mus musculus [3]) was “inactive”. The Activity (Mus musculus [4]) was “inactive”, the Activity (Mus musculus [5]) was “inactive” and the Activity (Mus musculus [6]) was “inactive”.
With O=C(N/N=C/c1cccc(Br)c1)c1ccncc1 the Activity (Mus musculus [1]) was “Non-toxic”, the Activity (Mus musculus [2]) was “Non-toxic” and the Activity (Mus musculus [3]) was “inactive”. The Activity (Mus musculus [4]) was “inactive”, the Activity (Mus musculus [5]) was “inactive” and the Activity (Mus musculus [6]) was “inactive”.
In the case of O=C(N/N=C/c1ccccc1F)c1ccncc1, the Activity (Mus musculus [1]) is reported as “Non-toxic”, the Activity (Mus musculus [2]) is reported as “Non-toxic” and the Activity (Mus musculus [3]) is reported as “inactive”. The Activity (Mus musculus [4]) was “inactive”, the Activity (Mus musculus [5]) was “inactive” and the Activity (Mus musculus [6]) was “inactive”.
For O=C(N/N=C/c1ccc(Cl)cc1)c1ccccc1, the Activity (Mus musculus [1]) was “Non-toxic”, the Activity (Mus musculus [2]) was “Non-toxic” and the Activity (Mus musculus [3]) was “inactive”. The Activity (Mus musculus [4]) was “inactive”, the Activity (Mus musculus [5]) was “inactive” and the Activity (Mus musculus [6]) was “inactive”.
For O=C(N/N=C/c1ccccc1[N+](=O)[O-])c1ccncc1, the Activity (Mus musculus [1]) was “Non-toxic”, the Activity (Mus musculus [2]) was “Non-toxic” and the Activity (Mus musculus [3]) was “inactive”. The Activity (Mus musculus [4]) was “inactive”, the Activity (Mus musculus [5]) was “inactive” and the Activity (Mus musculus [6]) was “inactive”.
With O=C(N/N=C/c1cccc(Cl)c1)c1ccncc1 [N'-(3-CHLOROBENZYLIDENE)ISONICOTINOHYDRAZIDE] the Activity (Mus musculus [1]) was “Non-toxic”, the Activity (Mus musculus [2]) was “Non-toxic” and the Activity (Mus musculus [3]) was “inactive”. For the same compound, the Activity (Mus musculus [4]) was “inactive”, the Activity (Mus musculus [5]) was “inactive” and the minimal effective dose (Mus musculus [10]) was 300 mg/kg.
With Cc1ccc(C(=O)N/N=C/c2cccc(Cl)c2)cc1 the Activity (Mus musculus [1]) was “Non-toxic”, the Activity (Mus musculus [2]) was “Non-toxic” and the Activity (Mus musculus [3]) was “inactive”. For the same compound, the Activity (Mus musculus [4]) was “inactive”, the Activity (Mus musculus [6]) was “inactive” and the minimal effective dose (Mus musculus [9]) was 100 mg/kg.
For Cc1ccc(C(=O)N/N=C/c2cccc(Br)c2)cc1, the Activity (Mus musculus [1]) was “Non-toxic”, the Activity (Mus musculus [2]) was “Non-toxic” and the Activity (Mus musculus [3]) was “inactive”. For the same compound, the Activity (Mus musculus [4]) was “inactive”, the Activity (Mus musculus [5]) was “inactive” and the Activity (Mus musculus [6]) was “inactive”.
In the case of Cc1ccc(C(=O)N/N=C/c2ccc(Cl)cc2)cc1, the Activity (Mus musculus [1]) is reported as “Non-toxic”, the Activity (Mus musculus [2]) is reported as “Non-toxic” and the Activity (Mus musculus [3]) is reported as “inactive”. The Activity (Mus musculus [4]) was “inactive”, the Activity (Mus musculus [5]) was “inactive” and the Activity (Mus musculus [6]) was “inactive”.
For O=C(N/N=C/c1ccc(O)cc1)c1cccnc1, the Activity (Mus musculus [1]) was “Non-toxic”, the Activity (Mus musculus [2]) was “Non-toxic” and the Activity (Mus musculus [3]) was “inactive”. The Activity (Mus musculus [4]) was “inactive”, the Activity (Mus musculus [5]) was “inactive” and the Activity (Mus musculus [6]) was “inactive”.
In the case of O=C(N/N=C/c1ccc(Cl)cc1)c1cccnc1, the “Ratio TD50/ED50” value (Rattus norvegicus [16]) is reported as greater than 10, the TD50 [17] is reported as greater than 320 mg/kg and the minimal effective dose (Mus musculus [11]) is reported as 12.5 mg/kg. For the same compound, the Activity (Mus musculus [1]) was “Non-toxic”, the Activity (Mus musculus [2]) was “Non-toxic” and the Activity (Mus musculus [3]) was “inactive”. The Activity (Mus musculus [4]) was “inactive”, the Activity (Mus musculus [5]) was “inactive” and the minimal effective dose (Mus musculus [10]) was 100 mg/kg. The ED50 (Rattus norvegicus [18]) was 31.4 mg/kg, the “Ratio TD50/ED50” value (Mus musculus [12]) was greater than 20 and the TD50 [13] was greater than 325 mg/kg. It also gave an ED50 (Mus musculus [14]) of 16.1 mg/kg and a minimal effective dose (Mus musculus [15]) of 12.5 mg/kg.
For O=C(N/N=C/c1cccc(Cl)c1)c1cccnc1, the Activity (Mus musculus [1]) was “Non-toxic”, the Activity (Mus musculus [2]) was “Non-toxic” and the Activity (Mus musculus [3]) was “inactive”. The Activity (Mus musculus [4]) was “inactive”, the Activity (Mus musculus [5]) was “inactive” and the minimal effective dose (Mus musculus [10]) was 300 mg/kg. The “Ratio TD50/ED50” value (Mus musculus [12]) was greater than 6.25, the TD50 [13] was greater than 500 mg/kg and the ED50 (Mus musculus [14]) was 80 mg/kg. The minimal effective dose (Mus musculus [15]) was 40 mg/kg.
For O=C(N/N=C/c1cccc(Br)c1)c1ccccc1, the Activity (Mus musculus [1]) was “Non-toxic”, the Activity (Mus musculus [2]) was “Non-toxic” and the Activity (Mus musculus [3]) was “inactive”. The Activity (Mus musculus [4]) was “inactive”, the Activity (Mus musculus [5]) was “inactive” and the Activity (Mus musculus [6]) was “inactive”.
